Where a name gives a salt, the structure may show the parent alone. Read-outs that look alike come from different tables or passages of the source.
Experiments:
L5178Y cells [1] = test: In vitro micronucleus test, flow cytometric (EMA/SYTOX) and microscopy scoring, L5178Y cells
Description: L5178Y cells were treated over a range of chemical concentrations in culture medium, one 25 cm^2 flask per concentration. During treatment, cells were at 3×10^5/ml in a volume of 20 ml per flask (this high number of cells facilitated multiple readings per flask). After a 4 hr treatment period, cells were washed one time via centrifugation at 600×g, resuspended in a volume of 40 ml culture medium, and transferred to 75 cm^2 flasks. Cells were re-incubated at 37° C. for 20 additional hrs—the equivalent of two normal doubling times.
In this case, cultures (1.5×10^5 cells/ml, 40 ml/flask) were continuously exposed to chemical over a range of concentrations. Cells were harvested after 24 hrs of incubation at 37° C. without recovery.
At the time of cell harvest, FDA+ and PI+ cell counts were performed as described supra. […] Cells were collected via centrifugation at approximately 600×g for 5 minutes. Supernatants were aspirated, and cells were resuspended with gentle tapping. […] These tubes were placed in racks and submerged to a depth of approximately 2 cm in crushed ice. A visible light source (60 watt light bulb) was positioned approximately 30 cm above the tubes for 20 minutes.
After the photoactivation period, 800 μl cold buffer solution was added to each sample. From this point forward, exposure of samples to light was minimized with dim lighting and foil. The contents of the tubes were then transferred to 15 ml polypropylene centrifuge tubes, and 8 ml of cold buffer solution was added to each sample. Cells were collected via centrifugation, and supernatants aspirated such that approximately 50 μl of supernatant remained per tube. Cells were gently resuspended with tapping, and were maintained at room temperature until the follow procedures were initiated (within 30 minutes). 1 ml “Lysis Solution 1” was added slowly to each tube (approximately 15 seconds per sample). […] Upon addition of Lysis Solution 1, the tube was immediately vortexed (medium setting) for 5 seconds. These samples were kept at room temperature for 1 hr. At this time, 1 ml “Lysis Solution 2” was injected forcefully into each tube, which were immediately vortexed (medium) for 5 seconds. […] These specimens were maintained at room temperature for 30 minutes. Subsequently, samples were stored at 4° C. until flow cytometric analysis (up to two days following cell harvest/staining/lysis procedures).
(§1) Samples, stored for up to two days at 4° C., were gently tapped to resuspend the particles. Data acquisition and analysis was then accomplished with a single-laser flow cytometer, 488 nm excitation (FACSCalibur, BD Biosciences, San Jose, Calif.). Instrumentation settings and data acquisition/analysis were controlled with CellQuest software v3.3 (BD Biosciences). SYTOX-associated fluorescence emission was collected in the FL1 channel (530/30 band-pass filter), and EMA-associated fluorescence was collected in the FL3 channel (670 long-pass filter). Events were triggered on FL1 fluorescence. The FCM gating strategy that was developed for this micronuclei scoring application required events to meet each of six separate criteria before they were scored as nuclei or micronuclei (see FIGS. 2A-H). The incidence of flow cytometric-scored micronuclei is expressed as frequency percent (no. micronuclei/no. nuclei×100), and are based on the acquisition of 20,000 EMA-negative nuclei per specimen.
Approximately 3.5×10^6 cells per culture were centrifuged and resuspended with 20 μl heat-inactivated fetal bovine serum. 5 μl aliquots were applied to glass slides. Air dried slides were submerged in absolute methanol for 10 minutes and then stored in the dark until staining and analysis. […] An Olympus BH-2 fluorescence microscope was used for micronuclei measurements at 400× magnification. For each treated culture, 2000 mononucleated, non-apoptotic, non-necrotic cells were analyzed for the presence of micronuclei (1000 cells×2 slides per culture).

L5178Y cells [2] = system: L5178Y cells
Description: as §1
That is, by displaying the SYTOX-associated signal as fluorescence area (FL1-A), qualitative assessments of cell cycle-related effects were possible. […] Note that while these observations are presented in a qualitative manner, software packages are available which are capable of deconvoluting such histograms to provide quantitative assessment of cell cycle effects.

L5178Y cells [3] = system: L5178Y cells; remark: listed apart in the source
Description: Once L5178Y or CHO-K1 cells were collected as described above, cytotoxicity measurements were performed as follows: 0.5 ml of each culture was added to flow cytometry tubes containing fluorescein diacetate (“FDA”) (0.075 μg/ml), propidium iodide (“PI”) (25 μg/ml), and 2.5 μm Carmine 580/620 microspheres (Molecular Probes, Eugene, Oreg.). The concentration of these “counting beads” was determined with a hemacytometer. […] Relative survival was then calculated as follows: The number of FDA+ cells in each chemical treatment culture was expressed as a percentage of the number of FDA+ cells in the concurrent solvent control culture.

CHO-K1 cells = test: In vitro micronucleus test, flow cytometric and microscopy scoring, CHO-K1 cells; type: cell-based, Chinese hamster; details: 4 hr treatment, 20 hr recovery, 0-40 μg/ml, FIG. 8
Description: On the day before treatment, CHO-K1 cells were harvested and counted, and their density was adjusted to 6×10^4/ml in culture medium. This cell suspension was added to 75 cm^2 flasks (20 ml per flask; one flask per exposure group). After incubating for approximately 16 to 24 hrs at 37° C., spent culture medium was replaced with 20 ml fresh, pre-warmed medium per flask. Methyl methanesulfonate was added from 1000× strength stock solutions for final concentrations of 0, 10, 20, 30, and 40 μg/ml, at which time cultures where reincubated at 37° C. After a 4 hr treatment period, culture medium was aspirated, cells were rinsed one time with an isotonic salt solution, and then 20 ml fresh, pre-warmed culture medium was added to each flask. These cultures were reincubated for a 20 hr recovery period. At the time of cell harvest, 2.5 ml typsin/EDTA solution per flask was used to detach cells from culture vessels. Cells were collected via centrifugation and responded in culture medium.
(§2) Events were triggered on FL1 fluorescence.
5 μl aliquots were applied to glass slides.

L5178Y cells [4] = test: Cytotoxicity, % EMA-positive events by flow cytometry; type: cell-based
Description: as §2
In addition to supplying genotoxicity and cell cycle information, these flow cytometric analyses were capable of concurrently providing a measure of cytotoxicity. Specifically, the frequency of EMA-positive events is a statistic that relates to membrane integrity. […] This statistic could be useful for helping to identify chemical concentrations that are too cytotoxic for reliable genotoxicity assessment.

Compound | MN Induction (≥3-fold) (L5178Y cells [1]) | Cell Cycle Effect (L5178Y cells [2]) | also measured
O=P1(N(CCCl)CCCl)NCCCO1 (centres unmarked) [Cyclophosphamide monohydrate] |  |  | MN Induction (≥3-fold) (L5178Y cells [1]; L5178Y cells, treatment/recovery 4/20 hrs, benzo[a]pyrene and cyclophosphamide with 10% v/v metabolic activation system): Yes
C[C@@H]1C[C@H]2[C@@H]3CCC4=CC(=O)C=C[C@]4(C)[C@@]3(F)[C@@H](O)C[C@]2(C)[C@@]1(O)C(=O)CO [Dexamethasone] | No | − | changes in % micronuclei (L5178Y cells [1]): Nil to slight changes; increase in % micronuclei relative to solvent control (L5178Y cells [1]; mouse): less than 3 fold; cell survival (L5178Y cells [3]): significantly affected cell survival
NC(=O)NO [Hydroxyurea] | Yes | +++ | 
COS(C)(=O)=O [Methyl methanesulfonate] | Yes | +++ | micronucleus frequency (CHO-K1 cells): dose-related increase
OC[C@H]1O[C@@](CO)(O[C@H]2O[C@H](CO)[C@@H](O)[C@H](O)[C@H]2O)[C@@H](O)[C@@H]1O [Sucrose] |  | − | micronucleus-induction (L5178Y cells [1]; L5178Y cells, continuous-treatment exposure (24 hr)): not evident; % EMA-positive events (L5178Y cells [4]): non-cytotoxic
CC[C@]1(O)C[C@@H]2CN(CCc3c([nH]c4ccccc34)[C@@](C(=O)OC)(c3cc4c(cc3OC)N(C)[C@H]3[C@@](O)(C(=O)OC)[C@H](OC(C)=O)[C@]5(CC)C=CCN6CC[C@]43[C@@H]65)C2)C1 [Vinblastine sulfate] | Yes | +++ | micronucleus response, continuous 24 hr exposure versus short-term treatment (L5178Y cells [1]): greater

Reference: patent US10000793B2, “Method for enumeration of mammalian cell micronuclei, while distinguishing chromatin of dead and dying cells” (priority 2004, dated 2018)
